Here are results for 2 compounds from patent US5220029A, “Synthetic proteolytic substrate” (Vitek Systems, Inc., priority 1990, dated 1993).

Assay [1] deals with trypsin. Briefly: Determination of kinetic constants for the trypsin catalyzed hydrolysis (continuous assay). It is filed as biochemical. As to conditions: triplicate. The source says:
(§1) The invention may be more thoroughly understood by reference to the included examples which describe the synthesis of amides of the type RCO-MBTH (Examples 1-15) and a continuous enzyme assay (Example 16). A disconintuous assay is illustrated in Example 17. Example 18 is a determination of the kinetic catalytic constant (kc) and binding constant (Km) for trypsin-catalyzed hydrolysis of an RCO-MBTH substrate by the continuous assay method.
Determination of the Kinetic Constants for the Trypsin Catalyzed Hydrolysis of N-(N-t-butoxycarbonyl)-L-Arginyl 3-methyl benzothiazolinone hydrazone (continuous assay)
In a one-cm. cuvette were mixed 3.0 mL of 0.02M tris buffer, pH 7.8, containing 0.02M 3-dimethylamino benzoic acid (DMAB) 0.1 mL of 0.065M potassium ferricyanide, and 0.1 mL of substrate (Boc-ARG-MBTH). The reaction was initiated by the addition of 0.1 mL of trypsin (2.33×10^-4 M in 0.1M pyrophosphate buffer, pH 8.3). Eight concentrations of substrate, from 9.98×10^-4 M to 7.8×10^-6 M, were assayed in triplicate. The increase in absorption at 590 nm was monitored continuously and the initial rates were determined. Under the conditions of the assay, a molar absorptivity of 57,000 was used to determine the concentration of the chromogen (MBTH-DMAB) produced by the hydrolysis of substrate. Table I contains the date used to determine the binding and kinetic constants (Km, kc).

Assay [2] deals with trypsin. Briefly: Continuous assay for trypsin (saturation kinetics), color development by DMAB/ferricyanide at 590 nm. It is filed as biochemical. As to conditions: 1 μg trypsin, 0.14M Tris pH 7.8, substrate 1.74×10^-3, 5.8×10^-4 and 3.9×10^-4 M in triplicate.
From the text: as §1
Saturation kinetics for N-(N-benzyloxycarbonyl)glycyl-L-prolyl-L-arginyl 3-methyl-2-benzothiazolinone hydrazone with trypsin
A continuous assay for trypsin was performed, i.e., the oxidizing and coupling reagents for color development were included with the substrate in the reaction mixture so that color development may be monitored on a continuous basis with time. In this example the dye precursor is developed to a dye without destroying the enzymatic activity of the enzyme. The reaction was initiated by the addition of 0.1 mL of enzyme (10 μg/mL) to 0.9 mL of buffer solution containing substrate (Z-GLY-PRO-ARG-MBTH) and color developing reagents. […] The increases in absorbance at 590 nm were monitored continuously for 5 minutes and the initial rates determined. Using the molar absorptivity of 57,000 for the chromogen produced (MBTH-DMAB), the average rate of hydrolysis was calculated to be 4.43+0.1×10^-6 mol min^-1.

Values joined by “and” are separate entries in the source; they are usually repeats but may differ in a detail not shown here. Equal values may be shown once.

Take `Cn1c(=NNC(=O)[C@H](CCCNC(=N)N)NC(=O)OC(C)(C)C)sc2ccccc21` [Boc-ARG-MBTH, N-(N-t-butoxycarbonyl)-L-Arginyl 3-methyl benzothiazolinone hydrazone]: the 1/V in assay [1] (1/s 100 M^-1) is 0.000565 min/M and 0.000528 min/M and 0.000625 min/M; in assay [1] (1/s 200 M^-1), 0.000699 min/M and 0.000742 min/M; in assay [1] (1/s 401 M^-1), 0.000766 min/M and 0.00088 min/M and 0.000819 min/M; in assay [1] (1/s 802 M^-1), 0.001033 min/M and 0.00108 min/M and 0.001188 min/M; in assay [1] (1/s 1603 M^-1), 0.001697 min/M and 0.001827 min/M; in assay [1] (1/s 2305 M^-1) it was 0.002969 min/M and 0.003393 min/M. Further, the 1/V in assay [1] (1/s 6413 M^-1) is 0.005056 min/M and 0.00528 min/M; in assay [1] (1/s 12826 M^-1), 0.009901 min/M and 0.009506 min/M.

With `Cn1c(=NNC(=O)[C@H](CCCNC(=N)N)NC(=O)[C@@H]2CCCN2C(=O)CNC(=O)OCc2ccccc2)sc2ccccc21` [Z-GLY-PRO-ARG-MBTH, N-(N-benzyloxycarbonyl)glycyl-L-prolyl-L-arginyl 3-methyl-2-benzothiazolinone hydrazone], in assay [2], the “average rate of hydrolysis” value is on record as 4.43+0.1×10^-6 mol min^-1.
